Results as given in patent US9707253B2, “High-loading, controlled-release magnesium oral dosage forms and methods for making and using same” (Pharmalyte Solutions, LLC, priority 2008, dated 2017).
Several values for one entry are separate records, joined by “and”; a condition that tells them apart may be missing. Equal values may be shown once.

Assays:
[1] = oral magnesium salts, background statement; cited from earlier work
[2] = normal: minimum 33.9 mEq/IU; cited from earlier work
[3] = Absolute bioavailability study: serum magnesium pharmacokinetics; settings: fasted; for AUC0-72 / AUC0-t / Cmax: mean (SD); for Tmax: median (range)
Source text: (§1) A study has been conducted to investigate magnesium L-lactate dihydrate extended release caplets for management of magnesium-deficient patients who have experienced electrolyte imbalance due to iatrogenic or disease cause such as episodic migraine headaches. […] A study to compare the absolute bioavailability of an oral magnesium formulation compared to an IV administered magnesium sulfate including both serum and urine pharmacokinetic parameters has never been reported in the scientific literature.
(§2) Three treatment regimens (Treatments A, B, and C) were employed in the study.
(§3) Urine and blood samples were collected for pharmacokinetic (PK) analysis of urinary and serum magnesium concentrations. A total of 29 urine samples for each subject were collected continuously throughout the study for determination of fractional and daily urine magnesium concentrations, and 33 blood samples were collected from each subject for determination of serum magnesium concentrations at each time point during the study.
(§4) The PK analysis population included 29 subjects for Treatment A, 29 subjects for Treatment B, and 31 subjects for Treatment C.
(§5) The absolute bioavailability of magnesium was evaluated by comparing serum magnesium exposure (AUC0-72) or urinary magnesium excretion (Ae0-72) after oral versus IV administration.

[4] = Absolute bioavailability study: urinary magnesium pharmacokinetics; settings: baseline-adjusted, Treatment B: IV infusion 20 mEq over 4 hours, fasted
Source text: as §1, §2, §3, §4, §5

[5] = healthy subjects, approximately 21 mEq, urinary excretion; cited from earlier work
[6] = baseline-adjusted, Treatment B: IV infusion 20 mEq over 4 hours
[7] = observed, Treatment B: IV infusion 20 mEq over 4 hours

magnesium gluconate
bioavailability [1]: about 20%

CC(O)C(=O)[O-].CC(O)C(=O)[O-].[Mg+2] (stereo not drawn) [magnesium lactate, 2-hydroxypropanoic acid magnesium salt]
effective in repleting intracellular magnesium levels to normal ranges [2]: 100%

O=S(=O)([O-])[O-].[Mg+2] [magnesium sulfate]
AUC0-72 [3, 6]: 76.2 (37.9) h · μg/mL
AUC0-t [3, 6]: 72.8 (35.4) h · μg/mL
Cmax [3, 6]: 6.79 (1.46) μg/mL
Tmax [3, 6]: 4.00 (2.00-6.00) h
AUC0-72 [3, 7]: 1390 (121) h · μg/mL
AUC0-t [3, 7]: 1390 (121) h · μg/mL
Cmax [3, 7]: 25.7 (1.62) μg/mL
Tmax ([3]; observed, Treatment B: single IV infusion 20 mEq over 4 hours): 4.00 (2.00-6.00) h
CLR0-72 ([4]; median (range)): 3.57 (1.44-35.6) L/h
Ae0-72 ([4]; urine, mean (SD)): 225 (49.5) mg
Rmax ([4]; urine, mean (SD)): 20.5 (4.29) mg/h
fe0-72 ([4]; urine, mean (SD)): 92.7% and 92.7 (20.4) %
Tmax,rate ([4]; urine, median (range)): 5.00 (3.00-9.00) h

[O]=[Mg] [magnesium oxide]
fractional absorption average [5]: 4%
bioavailability [1]: about 2%

[Cl-].[Cl-].[Mg+2] [magnesium chloride]
bioavailability [1]: about 20%
